The text below walks through data of patent publication US10618875B2 (priority 2017, dated 2020).

Structures can show the parent of a compound that is named as a salt. Bounds are passed on as bounds.

The conditions of data set [1]: mouse, in vivo.
A further data set deals with NCI-60 cell lines. The data set is described as follows: cells. It is filed as cell-based, human.
For data set [2] the following is noted: in vivo.
Data set [3] concerns Hep3B-luc human liver tumor. More on the design: species or system BALB/c nude mice. The settings on record: mouse.

Usually inhibition stands for the change of the read-out against control, counted positive when it falls. As for `O=[N+]([O-])c1ccc(O)c([N+](=O)[O-])c1` [DNP, 2,4-dinitrophenol], in data set [1], the blood creatinine result is on record as “raised blood creatinine”. In the data set with NCI-60 cell lines, the “delta of growth percent across all cell lines tested” value is recorded as 28.44% and the “range of growth percent across all cell lines” value was found to be 44.43%. Moreover, in the data set on NCI-60 cell lines (Homo sapiens, 48 h, read-out: mean growth percent of control across the NCI-60), the activity at 10 µM was 98.4%. The inhibition at 10 µM with NCI-60 cell lines (Homo sapiens, read-out: growth inhibition in any of the NCI-60 cell lines) was less than 50%. Also, the animals that died in data set [2] (male, C57BL/6, mouse) amounted to 50%. For the same molecule, the LD50 in data set [2] (mouse, po) is given as 100 mpk.
`CNC(=O)c1cc(Oc2ccc(NC(=O)Nc3ccc(Cl)c(C(F)(F)F)c3)cc2)ccn1` [Sorafenib, Sorafenib Tosylate]: in data set [3], the “BLI (in vivo bioluminescence) of Hep3B-luc tumor” value was “showed a trend toward having an effects on decreasing BLI”.
